The assay deals with Human 11β-HSD type 1 (Homo sapiens, UniProt P28845). As to the kind of experiment: 11β-HSD type 1 enzyme assay (NADPH production by fluorescence). It counts as biochemical. Particulars: recombinant human 11β-HSD type 1 enzyme, cortisol/NADP substrate, three hour incubation at room temperature. Here is the method:
Human 11β-HSD type 1 activity is measured by assaying NADPH production by fluorescence assay. Solid compounds are dissolved in DMSO to a concentration of 10 mM. Twenty microliters of each are then transferred to a column of a 96-well polypropylene Nunc plate where they are further diluted 50-fold followed by subsequent two-fold titration, ten times across the plate with additional DMSO using a Tecan Genesis 200 automated system. Plates are then transferred to a Tecan Freedom 200 system with an attached Tecan Temo 96-well head and an Ultra 384 plate reader. Reagents are supplied in 96-well polypropylene Nunc plates and are dispensed individually into black 96-well Molecular Devices High Efficiency assay plates (40 μL/well capacity) in the following fashion: 9 μL/well of substrate (2.22 mM NADP, 55.5 μM Cortisol, 10 mM Tris, 0.25% Prionex, 0.1% Triton X100), 3 μL/well of water to compound wells or 3 μL to control and standard wells, 6 μL/well recombinant human 11β-HSD type 1 enzyme, 2 μL/well of compound dilutions. […] Final DMSO concentration is 0.5% for all compounds, controls and standards. Plates are then placed on a shaker by the robotic arm of the Tecan for 15 seconds before being covered and stacked for a three hour incubation period at room temperature. Upon completion of this incubation, the Tecan robotic arm removes each plate individually from the stacker and places them in position for addition of 5 μL/well of a 250 μM carbenoxolone solution to stop the enzymatic reaction. Plates are then shaken once more for 15 seconds then placed into an Ultra 384 microplate reader (355EX/460EM) for detection of NADPH fluorescence.

Human 11β-HSD type 1, sequence (P28845 whole entry): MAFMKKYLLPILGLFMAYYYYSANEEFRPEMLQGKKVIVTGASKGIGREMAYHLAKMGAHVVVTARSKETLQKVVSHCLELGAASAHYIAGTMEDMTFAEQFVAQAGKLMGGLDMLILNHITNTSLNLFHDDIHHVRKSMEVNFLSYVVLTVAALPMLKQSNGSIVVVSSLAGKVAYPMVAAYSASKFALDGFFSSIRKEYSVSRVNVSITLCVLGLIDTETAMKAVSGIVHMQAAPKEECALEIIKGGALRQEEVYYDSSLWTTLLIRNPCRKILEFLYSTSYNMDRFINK

What is called IC50 is the concentration at which inhibition is half-maximal. In the case of `O=C1C(Cc2ccc3cc(-c4c(Cl)cccc4Cl)ccc3c2)CCN1C1CCCCC1` (stereo not shown) [Example 44], the half-maximal inhibitory concentration (IC50) turned out to be 344 nM.

In the case of `O=C1C(Cc2ccc3ccccc3c2Br)CCN1C1CCCCC1` (stereo not shown) [Example 2, 3-(1-Bromo-naphthalen-2-ylmethyl)-1-cyclohexyl-pyrrolidin-2-one], the IC50 was determined as 354 nM.

On to `COc1ccc2ccccc2c1CC1CCCN(C2CCCCC2)C1=O` (stereo not shown) [Example 40, 1-Cyclohexyl-3-(2-methoxy-naphthalene-1-ylmethyl)-piperidin-2-one], for which the IC50 worked out at 423 nM.

As for `COc1ccc2cc(CC3CCCN([C@H]4CC[C@H](O)CC4)C3=O)ccc2c1` (stereo partly shown) [Example 34], the IC50 was found to be 353 nM.

Regarding `COc1ccc2c(Cl)c(CC3CCN(C4CCCCC4)C3=O)ccc2c1` (stereo not shown) [Example 24, 3-((1-chloro-6-methoxynaphthalen-2-yl)methyl)-1-cyclohexylpyrrolidin-2-one], the IC50 worked out at 213 nM.

As to `COc1ccc2cc(CC3CCN([C@H]4CC[C@@H](O)CC4)C3=O)ccc2c1` (relative stereo) [Example 8, 1-(cis-4-Hydroxy-cyclohexyl)-3-(6-methoxy-naphthalen-2-ylmethyl)-pyrrolidin-2-one], the half-maximal inhibitory concentration (IC50) stood at 247 nM.

Take `COc1ccc2cc(CC3CCN(C4CCCCC4)C3=O)ccc2c1` (stereo not shown) [Example 4, 1-Cyclohexyl-3-(6-methoxy-naphthalen-2-ylmethyl)-pyrrolidin-2-one]: the IC50 is 134 nM.

For the origin of these results see patent US20080214621A1, “Cycloalkyl Lactam Derivatives As Inhibitors Of 11-Beta-Hydroxysteroid Dehydrogenase 1” (priority 2004, published 2008).
